Results as given in ChEMBL document CHEMBL1201862, “PubChem BioAssay data set” (2004).
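Method: 48-hour compound exposure of cells in 96-well plates, five concentrations, linear interpolation of endpoints. Abbreviation: GI50, concentration required for 50% inhibition of growth.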 Active and inactive are the calls of the source. Rule as the data show it: active = GI50 up to about 1.1 µM and inactive = higher.

Columns and labels:
Experiment in all cases: DTP human tumour cell line panel, 48 h
786-0 = tested on: 786-0
A549 = tested on: A549
ACHN = tested on: ACHN
BT-549 = tested on: BT-549
CAKI-1 = tested on: CAKI-1
COLO 205 = tested on: COLO 205
DU-145 = tested on: DU-145
EKVX = tested on: EKVX
HCC 2998 = tested on: HCC 2998
HCT-116 = tested on: HCT-116
HCT-15 = tested on: HCT-15
HOP-62 = tested on: HOP-62
HT-29 = tested on: HT-29
Hs-578T = tested on: Hs-578T
IGROV-1 = tested on: IGROV-1
K562 = tested on: K562
KM12 = tested on: KM12
LOX IMVI = tested on: LOX IMVI
M14 = tested on: M14
MCF7 = tested on: MCF7
MDA-MB-231 = tested on: MDA-MB-231
MDA-MB-435 = tested on: MDA-MB-435
MDA-N = tested on: MDA-N
MOLT-4 = tested on: MOLT-4
Malme-3M = tested on: Malme-3M
NCI-H226 = tested on: NCI-H226
NCI-H23 = tested on: NCI-H23
NCI-H460 = tested on: NCI-H460
NCI/ADR-RES = tested on: NCI/ADR-RES
OVCAR-3 = tested on: OVCAR-3
OVCAR-4 = tested on: OVCAR-4
OVCAR-5 = tested on: OVCAR-5
OVCAR-8 = tested on: OVCAR-8
PC-3 = tested on: PC-3
RPMI-8226 = tested on: RPMI-8226
SF-268 = tested on: SF-268
SF-295 = tested on: SF-295
SF-539 = tested on: SF-539
SK-MEL-28 = tested on: SK-MEL-28
SK-MEL-2 = tested on: SK-MEL-2
SK-MEL-5 = tested on: SK-MEL-5
SK-OV-3 = tested on: SK-OV-3
SN12C = tested on: SN12C
SNB-19 = tested on: SNB-19
SNB-75 = tested on: SNB-75
SR = tested on: SR
SW-620 = tested on: SW-620
T47D = tested on: T47D
TK-10 = tested on: TK-10
U-251 = tested on: U-251
UACC-257 = tested on: UACC-257
UACC-62 = tested on: UACC-62
UO-31 = tested on: UO-31
A498 = tested on: A498
CCRF-CEM = tested on: CCRF-CEM
HL-60 = tested on: HL-60
HOP-92 = tested on: HOP-92
NCI-H522 = tested on: NCI-H522
RXF 393 = tested on: RXF 393

C[n+]1c2ccccc2c(C(=O)Nc2ccc(S(=O)(=O)Nc3ccnn3-c3ccccc3)cc2)c2ccccc21
GI50 (786-0): > 100 µM (inactive)
GI50 (A549): > 100 µM (inactive)
GI50 (ACHN): > 100 µM (inactive)
GI50 (BT-549): > 100 µM (inactive)
GI50 (CAKI-1): > 100 µM (inactive)
GI50 (COLO 205): > 100 µM (inactive)
GI50 (DU-145): > 100 µM (inactive)
GI50 (EKVX): > 100 µM (inactive)
GI50 (HCC 2998): > 100 µM (inactive)
GI50 (HCT-116): > 100 µM (inactive)
GI50 (HCT-15): > 100 µM
GI50 (HOP-62): > 100 µM (inactive)
GI50 (HT-29): > 100 µM (inactive)
GI50 (Hs-578T): > 100 µM (inactive)
GI50 (IGROV-1): > 100 µM (inactive)
GI50 (K562): > 100 µM (inactive)
GI50 (KM12): > 100 µM (inactive)
GI50 (LOX IMVI): > 100 µM (inactive)
GI50 (M14): > 100 µM (inactive)
GI50 (MCF7): > 100 µM (inactive)
GI50 (MDA-MB-231): > 100 µM (inactive)
GI50 (MDA-MB-435): > 100 µM (inactive)
GI50 (MDA-N): > 100 µM (inactive)
GI50 (MOLT-4): > 100 µM (inactive)
GI50 (Malme-3M): > 100 µM (inactive)
GI50 (NCI-H226): > 100 µM (inactive)
GI50 (NCI-H23): > 100 µM (inactive)
GI50 (NCI-H460): > 100 µM (inactive)
GI50 (NCI/ADR-RES): 20.7 µM (inactive)
GI50 (OVCAR-3): > 100 µM (inactive)
GI50 (OVCAR-4): > 100 µM (inactive)
GI50 (OVCAR-5): > 100 µM (inactive)
GI50 (OVCAR-8): > 100 µM (inactive)
GI50 (PC-3): > 100 µM (inactive)
GI50 (RPMI-8226): > 100 µM (inactive)
GI50 (SF-268): > 100 µM (inactive)
GI50 (SF-295): > 100 µM (inactive)
GI50 (SF-539): > 100 µM (inactive)
GI50 (SK-MEL-28): > 100 µM (inactive)
GI50 (SK-MEL-2): > 100 µM (inactive)
GI50 (SK-MEL-5): 69.2 µM (inactive)
GI50 (SK-OV-3): > 100 µM (inactive)
GI50 (SN12C): > 100 µM (inactive)
GI50 (SNB-19): > 100 µM (inactive)
GI50 (SNB-75): > 100 µM (inactive)
GI50 (SR): > 100 µM (inactive)
GI50 (SW-620): > 100 µM (inactive)
GI50 (T47D): > 100 µM (inactive)
GI50 (TK-10): > 100 µM (inactive)
GI50 (U-251): > 100 µM (inactive)
GI50 (UACC-257): > 100 µM (inactive)
GI50 (UACC-62): > 100 µM (inactive)
GI50 (UO-31): > 100 µM (inactive)

COC(=O)C1=C(OC(=O)/C(=C/c2ccccc2)c2ccc([N+](=O)[O-])cc2)C(C(=O)OC)[C@@]2(O)[C@@H](C(=O)OC)[C@H](C)C[C@@H]1[C@@H]2C(=O)OC (some centres undefined)
GI50 (786-0): > 100 µM (inactive)
GI50 (A498): > 100 µM (inactive)
GI50 (A549): 76.2 µM (inactive)
GI50 (ACHN): > 100 µM (inactive)
GI50 (BT-549): 31.1 µM (inactive)
GI50 (CAKI-1): > 100 µM (inactive)
GI50 (CCRF-CEM): 12.9 µM (inactive)
GI50 (COLO 205): > 100 µM (inactive)
GI50 (DU-145): > 100 µM (inactive)
GI50 (EKVX): > 100 µM (inactive)
GI50 (HCC 2998): > 100 µM (inactive)
GI50 (HCT-116): > 100 µM (inactive)
GI50 (HCT-15): > 100 µM
GI50 (HL-60): 78 µM (inactive)
GI50 (HOP-62): > 100 µM (inactive)
GI50 (HOP-92): > 100 µM (inactive)
GI50 (HT-29): > 100 µM (inactive)
GI50 (Hs-578T): > 100 µM (inactive)
GI50 (IGROV-1): > 100 µM (inactive)
GI50 (K562): > 100 µM (inactive)
GI50 (KM12): > 100 µM (inactive)
GI50 (LOX IMVI): > 100 µM (inactive)
GI50 (M14): > 100 µM (inactive)
GI50 (MCF7): > 100 µM (inactive)
GI50 (MDA-MB-231): > 100 µM (inactive)
GI50 (MDA-MB-435): > 100 µM (inactive)
GI50 (MDA-N): > 100 µM (inactive)
GI50 (MOLT-4): 3.53 µM (inactive)
GI50 (Malme-3M): > 100 µM (inactive)
GI50 (NCI-H226): > 100 µM (inactive)
GI50 (NCI-H23): > 100 µM (inactive)
GI50 (NCI-H460): > 100 µM (inactive)
GI50 (NCI-H522): 77.3 µM (inactive)
GI50 (NCI/ADR-RES): > 100 µM (inactive)
GI50 (OVCAR-3): > 100 µM (inactive)
GI50 (OVCAR-4): > 100 µM (inactive)
GI50 (OVCAR-5): > 100 µM (inactive)
GI50 (OVCAR-8): > 100 µM (inactive)
GI50 (PC-3): > 100 µM (inactive)
GI50 (RPMI-8226): 3.71 µM (inactive)
GI50 (RXF 393): 53 µM (inactive)
GI50 (SF-268): > 100 µM (inactive)
GI50 (SF-295): > 100 µM (inactive)
GI50 (SF-539): 51.5 µM (inactive)
GI50 (SK-MEL-28): > 100 µM (inactive)
GI50 (SK-MEL-2): > 100 µM (inactive)
GI50 (SK-MEL-5): > 100 µM (inactive)
GI50 (SK-OV-3): > 100 µM (inactive)
GI50 (SN12C): > 100 µM (inactive)
GI50 (SNB-19): > 100 µM (inactive)
GI50 (SNB-75): 72.9 µM (inactive)
GI50 (SW-620): > 100 µM (inactive)
GI50 (T47D): > 100 µM (inactive)
GI50 (TK-10): > 100 µM (inactive)
GI50 (U-251): > 100 µM (inactive)
GI50 (UACC-257): > 100 µM (inactive)
GI50 (UACC-62): > 100 µM (inactive)
GI50 (UO-31): > 100 µM (inactive)

C/C1=C\CC[C@@]2(C)O[C@@H]2C[C@@H]2[C@H](C/C(C)=C/CC1)OC(=O)C21CCN=N1 (some centres undefined)
GI50 (786-0): > 75 µM (inactive)
GI50 (A498): > 100 µM (inactive)
GI50 (A549): 51.2 µM (inactive)
GI50 (ACHN): 35.3 µM (inactive)
GI50 (BT-549): > 75 µM (inactive)
GI50 (CAKI-1): > 75 µM (inactive)
GI50 (CCRF-CEM): 15 µM (inactive)
GI50 (COLO 205): > 75 µM (inactive)
GI50 (DU-145): > 75 µM (inactive)
GI50 (EKVX): > 75 µM (inactive)
GI50 (HCC 2998): > 75 µM (inactive)
GI50 (HCT-116): > 75 µM (inactive)
GI50 (HCT-15): > 75 µM
GI50 (HL-60): 37.2 µM (inactive)
GI50 (HOP-62): 27.9 µM (inactive)
GI50 (HOP-92): > 75 µM (inactive)
GI50 (HT-29): > 75 µM (inactive)
GI50 (Hs-578T): 38 µM (inactive)
GI50 (IGROV-1): > 75 µM (inactive)
GI50 (K562): 6.98 µM (inactive)
GI50 (KM12): > 75 µM (inactive)
GI50 (LOX IMVI): 21 µM (inactive)
GI50 (M14): > 75 µM (inactive)
GI50 (MCF7): > 75 µM (inactive)
GI50 (MDA-MB-231): > 75 µM (inactive)
GI50 (MDA-MB-435): > 75 µM (inactive)
GI50 (MDA-N): > 75 µM (inactive)
GI50 (MOLT-4): 16 µM (inactive)
GI50 (Malme-3M): > 75 µM (inactive)
GI50 (NCI-H226): > 100 µM (inactive)
GI50 (NCI-H23): > 75 µM (inactive)
GI50 (NCI-H460): 39.6 µM (inactive)
GI50 (NCI-H522): 72.4 µM (inactive)
GI50 (NCI/ADR-RES): > 75 µM (inactive)
GI50 (OVCAR-3): > 75 µM (inactive)
GI50 (OVCAR-4): 61.8 µM (inactive)
GI50 (OVCAR-5): > 75 µM (inactive)
GI50 (OVCAR-8): > 75 µM (inactive)
GI50 (PC-3): > 75 µM (inactive)
GI50 (RPMI-8226): 31.3 µM (inactive)
GI50 (RXF 393): > 75 µM (inactive)
GI50 (SF-268): > 75 µM (inactive)
GI50 (SF-295): 32.4 µM (inactive)
GI50 (SF-539): > 75 µM (inactive)
GI50 (SK-MEL-28): > 75 µM (inactive)
GI50 (SK-MEL-2): > 75 µM (inactive)
GI50 (SK-MEL-5): 34.9 µM (inactive)
GI50 (SK-OV-3): > 75 µM (inactive)
GI50 (SN12C): 37.8 µM (inactive)
GI50 (SNB-19): > 75 µM (inactive)
GI50 (SNB-75): 25.9 µM (inactive)
GI50 (SW-620): > 75 µM (inactive)
GI50 (T47D): > 100 µM (inactive)
GI50 (TK-10): > 75 µM (inactive)
GI50 (U-251): > 75 µM (inactive)
GI50 (UACC-257): > 75 µM (inactive)
GI50 (UACC-62): > 75 µM (inactive)
GI50 (UO-31): > 75 µM (inactive)
